From ChEMBL document CHEMBL4152339, “Design and synthesis of novel 1H-tetrazol-5-amine based potent antimicrobial agents: DNA topoisomerase IV and gyrase affinity evaluation supported by molecular docking studies” (Eur J Med Chem, 2018)
Converted amounts (≈) assume the structure as drawn.

Legend:
Assay type in all cases: functional
Staphylococcus aureus [1] = experiment: Antibacterial activity against Staphylococcus aureus NCTC 4163 after 18 hrs by CLSI disc diffusion method; settings: NCTC 4163, 18 h
Staphylococcus aureus [2] = experiment: Antibacterial activity against Staphylococcus aureus ATCC 25923 after 18 hrs by CLSI disc diffusion method; settings: ATCC 25923, 18 h
Staphylococcus aureus [3] = experiment: Antibacterial activity against Staphylococcus aureus ATCC 6538 after 18 hrs by CLSI disc diffusion method; settings: ATCC 6538, 18 h
[4] = test system: Staphylococcus epidermidis; experiment: Antibacterial activity against Staphylococcus epidermidis ATCC 12228 after 18 hrs by CLSI disc diffusion method; settings: ATCC 12228, 18 h
[5] = test system: Staphylococcus epidermidis; experiment: Antibacterial activity against Staphylococcus epidermidis ATCC 35984 after 18 hrs by CLSI […] method; settings: ATCC 35984, 18 h
Bacillus spizizenii = experiment: Antibacterial activity against Bacillus subtilis ATCC 6633 after 18 hrs by CLSI disc diffusion method; settings: ATCC 6633, 18 h
Bacillus cereus = experiment: Antibacterial activity against Bacillus cereus ATCC 11778 after 18 hrs by CLSI disc diffusion method; settings: ATCC 11778, 18 h
Enterococcus hirae = experiment: Antibacterial activity against Enterococcus hirae ATCC 10541 after 18 hrs by CLSI disc diffusion method; settings: ATCC 10541, 18 h
Enterococcus faecalis = experiment: Antibacterial activity against Enterococcus faecalis ATCC 29212 after 18 hrs by CLSI disc diffusion method; settings: ATCC 29212, 18 h
Micrococcus luteus [6] = experiment: Antibacterial activity against Micrococcus luteus ATCC 10240 after 18 hrs by CLSI disc diffusion method; settings: ATCC 10240, 18 h
Micrococcus luteus [7] = experiment: Antibacterial activity against Micrococcus luteus ATCC 9341 after 18 hrs by CLSI disc diffusion method; settings: ATCC 9341, 18 h
Escherichia coli [8] = experiment: Antibacterial activity against Escherichia coli ATCC 10538 after 18 hrs by CLSI disc diffusion method; settings: ATCC 10538, 18 h
Proteus vulgaris = experiment: Antibacterial activity against Proteus vulgaris NCTC 4635 after 18 hrs by CLSI disc diffusion method; settings: NCTC 4635, 18 h
Pseudomonas aeruginosa [9] = experiment: Antibacterial activity against Pseudomonas aeruginosa ATCC 15442 after 18 hrs by CLSI disc diffusion method; settings: ATCC 15442, 18 h
Pseudomonas aeruginosa [10] = experiment: Antibacterial activity against Pseudomonas aeruginosa ATCC 27853 after 18 hrs by CLSI disc diffusion method; settings: ATCC 27853, 18 h
[11] = test system: Bordetella bronchiseptica; experiment: Antibacterial activity against Bordetella bronchiseptica ATCC 4617 after 18 hrs by CLSI disc diffusion method; settings: ATCC 4617, 18 h
Staphylococcus aureus [12] = experiment: Antibacterial activity against Staphylococcus aureus 495 after 18 hrs by CLSI disc diffusion method; settings: Staphylococcus aureus, 495, 18 h
Staphylococcus aureus [13] = experiment: Antibacterial activity against Staphylococcus aureus 496 after 18 hrs by CLSI disc diffusion method; settings: Staphylococcus aureus, 496, 18 h
Staphylococcus aureus [14] = experiment: Antibacterial activity against Staphylococcus aureus 497 after 18 hrs by CLSI disc diffusion method; settings: Staphylococcus aureus, 497, 18 h
Staphylococcus aureus [15] = experiment: Antibacterial activity against Staphylococcus aureus 498 after 18 hrs by CLSI disc diffusion method; settings: Staphylococcus aureus, 498, 18 h
Staphylococcus aureus [16] = experiment: Antibacterial activity against Staphylococcus aureus 537 after 18 hrs by CLSI disc diffusion method; settings: Staphylococcus aureus, 537, 18 h
Staphylococcus aureus [17] = experiment: Antibacterial activity against Staphylococcus aureus 572 after 18 hrs by CLSI disc diffusion method; settings: Staphylococcus aureus, 572, 18 h
Staphylococcus aureus [18] = experiment: Antibacterial activity against Staphylococcus aureus 585 after 18 hrs by CLSI disc diffusion method; settings: Staphylococcus aureus, 585, 18 h
Staphylococcus aureus [19] = experiment: Antibacterial activity against Staphylococcus aureus 586 after 18 hrs by CLSI disc diffusion method; settings: Staphylococcus aureus, 586, 18 h
[20] = test system: Staphylococcus epidermidis; experiment: Antibacterial activity against Staphylococcus epidermidis 423 after 18 hrs by CLSI disc diffusion method; settings: Staphylococcus epidermidis, 423, 18 h
[21] = test system: Staphylococcus epidermidis; experiment: Antibacterial activity against Staphylococcus epidermidis 431 after 18 hrs by CLSI disc diffusion method; settings: Staphylococcus epidermidis, 431, 18 h
[22] = test system: Staphylococcus epidermidis; experiment: Antibacterial activity against Staphylococcus epidermidis 432 after 18 hrs by CLSI disc diffusion method; settings: Staphylococcus epidermidis, 432, 18 h
[23] = test system: Staphylococcus epidermidis; experiment: Antibacterial activity against Staphylococcus epidermidis 433 after 18 hrs by CLSI disc diffusion method; settings: Staphylococcus epidermidis, 433, 18 h
[24] = test system: Staphylococcus epidermidis; experiment: Antibacterial activity against Staphylococcus epidermidis 469 after 18 hrs by CLSI disc diffusion method; settings: Staphylococcus epidermidis, 469, 18 h
[25] = test system: Staphylococcus epidermidis; experiment: Antibacterial activity against Staphylococcus epidermidis 471 after 18 hrs by CLSI disc diffusion method; settings: Staphylococcus epidermidis, 471, 18 h
[26] = test system: Staphylococcus epidermidis; experiment: Antibacterial activity against Staphylococcus epidermidis 510 after 18 hrs by CLSI disc diffusion method; settings: Staphylococcus epidermidis, 510, 18 h
[27] = test system: Staphylococcus epidermidis; experiment: Antibacterial activity against Staphylococcus epidermidis 511 after 18 hrs by CLSI disc diffusion method; settings: Staphylococcus epidermidis, 511, 18 h
Pseudomonas aeruginosa [28] = experiment: Antibacterial activity against Pseudomonas aeruginosa 6m after 18 hrs by CLSI disc diffusion method
Pseudomonas aeruginosa [29] = experiment: Antibacterial activity against Pseudomonas aeruginosa 7m after 18 hrs by CLSI disc diffusion method
Pseudomonas aeruginosa [30] = experiment: Antibacterial activity against Pseudomonas aeruginosa 10m after 18 hrs by CLSI disc diffusion method
Pseudomonas aeruginosa [31] = experiment: Antibacterial activity against Pseudomonas aeruginosa 11m after 18 hrs by CLSI disc diffusion method
Pseudomonas aeruginosa [32] = experiment: Antibacterial activity against Pseudomonas aeruginosa 12m after 18 hrs by CLSI disc diffusion method
Pseudomonas aeruginosa [33] = experiment: Antibacterial activity against Pseudomonas aeruginosa 16m after 18 hrs by CLSI disc diffusion method
Pseudomonas aeruginosa [34] = experiment: Antibacterial activity against Pseudomonas aeruginosa 18m after 18 hrs by CLSI disc diffusion method
Pseudomonas aeruginosa [35] = experiment: Antibacterial activity against Pseudomonas aeruginosa 31m after 18 hrs by CLSI disc diffusion method
Escherichia coli [36] = experiment: Antibacterial activity against Escherichia coli ML 5 after 18 hrs by CLSI disc diffusion method; settings: ML 5, 18 h
Escherichia coli [37] = experiment: Antibacterial activity against Escherichia coli ML 6 after 18 hrs by CLSI disc diffusion method; settings: ML 6, 18 h
Escherichia coli [38] = experiment: Antibacterial activity against Escherichia coli ML 8 after 18 hrs by CLSI disc diffusion method; settings: ML 8, 18 h
Escherichia coli [39] = experiment: Antibacterial activity against Escherichia coli ML 9 after 18 hrs by CLSI disc diffusion method; settings: ML 9, 18 h
Escherichia coli [40] = experiment: Antibacterial activity against Escherichia coli ML 12 after 18 hrs by CLSI disc diffusion method; settings: ML 12, 18 h
Escherichia coli [41] = experiment: Antibacterial activity against Escherichia coli ML 15 after 18 hrs by CLSI disc diffusion method; settings: ML 15, 18 h
Escherichia coli [42] = experiment: Antibacterial activity against Escherichia coli ML 16 after 18 hrs by CLSI disc diffusion method; settings: ML 16, 18 h
Escherichia coli [43] = experiment: Antibacterial activity against Escherichia coli ML 17 after 18 hrs by CLSI disc diffusion method; settings: ML 17, 18 h

With `O=C(O)n1nnnc1Nn1cnnc1` the MIC (Staphylococcus aureus [1]) was 20 µM (≈ 3.92 µg/mL), the MIC (Staphylococcus aureus [2]) was 20 µM (≈ 3.92 µg/mL) and the MIC (Staphylococcus aureus [3]) was 20 µM (≈ 3.92 µg/mL). The MIC [4] was 10 µM (≈ 1.96 µg/mL), the MIC [5] was 5 µM (≈ 0.981 µg/mL) and the MIC (Bacillus spizizenii) was 5 µM (≈ 0.981 µg/mL). It also gave an MIC (Bacillus cereus) of 10 µM (≈ 1.96 µg/mL), an MIC (Enterococcus hirae) of 10 µM (≈ 1.96 µg/mL) and an MIC (Enterococcus faecalis) of 10 µM (≈ 1.96 µg/mL). The MIC (Micrococcus luteus [6]) was 20 µM (≈ 3.92 µg/mL), the MIC (Micrococcus luteus [7]) was 20 µM (≈ 3.92 µg/mL) and the MIC (Escherichia coli [8]) was 20 µM (≈ 3.92 µg/mL). It also gave an MIC (Proteus vulgaris) of 10 µM (≈ 1.96 µg/mL), an MIC (Pseudomonas aeruginosa [9]) of 1300 µM (≈ 256 µg/mL) and an MIC (Pseudomonas aeruginosa [10]) of 1300 µM (≈ 256 µg/mL). The MIC [11] was 652 µM (≈ 128 µg/mL), the MIC (Staphylococcus aureus [12]) was 41 µM (≈ 8.04 µg/mL) and the MIC (Staphylococcus aureus [13]) was 82 µM (≈ 16.1 µg/mL). For the same compound, the MIC (Staphylococcus aureus [14]) was 82 µM (≈ 16.1 µg/mL), the MIC (Staphylococcus aureus [15]) was 82 µM (≈ 16.1 µg/mL) and the MIC (Staphylococcus aureus [16]) was 82 µM (≈ 16.1 µg/mL). For the same compound, the MIC (Staphylococcus aureus [17]) was 41 µM (≈ 8.04 µg/mL), the MIC (Staphylococcus aureus [18]) was 82 µM (≈ 16.1 µg/mL) and the MIC (Staphylococcus aureus [19]) was 82 µM (≈ 16.1 µg/mL). The MIC [20] was 20 µM (≈ 3.92 µg/mL), the MIC [21] was 20 µM (≈ 3.92 µg/mL) and the MIC [22] was 41 µM (≈ 8.04 µg/mL). The MIC [23] was 20 µM (≈ 3.92 µg/mL), the MIC [24] was 20 µM (≈ 3.92 µg/mL) and the MIC [25] was 41 µM (≈ 8.04 µg/mL). For the same compound, the MIC [26] was 20 µM (≈ 3.92 µg/mL), the MIC [27] was 20 µM (≈ 3.92 µg/mL) and the MIC (Pseudomonas aeruginosa [28]) was 326 µM (≈ 63.9 µg/mL). For the same compound, the MIC (Pseudomonas aeruginosa [29]) was 326 µM (≈ 63.9 µg/mL), the MIC (Pseudomonas aeruginosa [30]) was 326 µM (≈ 63.9 µg/mL) and the MIC (Pseudomonas aeruginosa [31]) was 652 µM (≈ 128 µg/mL). It also gave an MIC (Pseudomonas aeruginosa [32]) of 326 µM (≈ 63.9 µg/mL), an MIC (Pseudomonas aeruginosa [33]) of 326 µM (≈ 63.9 µg/mL) and an MIC (Pseudomonas aeruginosa [34]) of 652 µM (≈ 128 µg/mL). For the same compound, the MIC (Pseudomonas aeruginosa [35]) was 326 µM (≈ 63.9 µg/mL), the MIC (Escherichia coli [36]) was 326 µM (≈ 63.9 µg/mL) and the MIC (Escherichia coli [37]) was 1300 µM (≈ 256 µg/mL). For the same compound, the MIC (Escherichia coli [38]) was 326 µM (≈ 63.9 µg/mL), the MIC (Escherichia coli [39]) was 326 µM (≈ 63.9 µg/mL) and the MIC (Escherichia coli [40]) was greater than 1300 µM. The MIC (Escherichia coli [41]) was 1300 µM (≈ 256 µg/mL), the MIC (Escherichia coli [42]) was 326 µM (≈ 63.9 µg/mL) and the MIC (Escherichia coli [43]) was 326 µM (≈ 63.9 µg/mL).
